ChEMBL document CHEMBL4477208, “Discovery and Rational Design of Pteridin-7(8H)-one-Based Inhibitors Targeting FMS-like Tyrosine Kinase 3 (FLT3) and Its Mutants” (J Med Chem, 2016)
Calls of active or inactive are those of the source. The calls are words filed in the database; no cut-off is given here.

Tests used:
[1] = biological target: T1, Receptor-type tyrosine-protein kinase FLT3 (Homo sapiens, UniProt P36888)
T1 sequence (P36888 whole entry): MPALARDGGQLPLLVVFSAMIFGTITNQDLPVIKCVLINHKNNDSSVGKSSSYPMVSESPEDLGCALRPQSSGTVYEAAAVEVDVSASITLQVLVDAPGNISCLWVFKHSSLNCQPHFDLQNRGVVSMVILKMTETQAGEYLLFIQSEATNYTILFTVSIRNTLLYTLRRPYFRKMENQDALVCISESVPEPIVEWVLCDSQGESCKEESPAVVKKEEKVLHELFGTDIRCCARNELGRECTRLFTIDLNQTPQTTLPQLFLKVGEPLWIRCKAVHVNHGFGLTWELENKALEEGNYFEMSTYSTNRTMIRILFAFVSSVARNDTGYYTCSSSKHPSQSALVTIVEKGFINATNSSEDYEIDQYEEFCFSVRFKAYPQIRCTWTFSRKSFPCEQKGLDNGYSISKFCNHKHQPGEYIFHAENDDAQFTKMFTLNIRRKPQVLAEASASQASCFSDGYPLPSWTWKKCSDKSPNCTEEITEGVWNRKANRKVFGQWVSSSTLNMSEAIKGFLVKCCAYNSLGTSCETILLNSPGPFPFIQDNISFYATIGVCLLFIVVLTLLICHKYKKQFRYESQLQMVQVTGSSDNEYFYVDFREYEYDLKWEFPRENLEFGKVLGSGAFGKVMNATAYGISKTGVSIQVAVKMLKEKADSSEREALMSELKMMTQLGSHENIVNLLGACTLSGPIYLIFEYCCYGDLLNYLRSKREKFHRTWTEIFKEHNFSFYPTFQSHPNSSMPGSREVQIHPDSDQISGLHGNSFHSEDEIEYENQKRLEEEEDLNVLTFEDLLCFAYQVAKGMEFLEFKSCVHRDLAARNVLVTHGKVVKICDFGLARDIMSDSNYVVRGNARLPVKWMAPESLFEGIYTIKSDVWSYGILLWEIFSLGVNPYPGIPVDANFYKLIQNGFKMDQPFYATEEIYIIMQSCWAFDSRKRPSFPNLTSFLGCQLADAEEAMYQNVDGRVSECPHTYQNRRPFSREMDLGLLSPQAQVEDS
Description: Inhibition of human N-terminal GST-tagged FLT3 (564 to 993 residues) expressed in baculovirus expression system using peptide FAM-P2 as substrate incubated for 10 mins followed by substrate addition by mobility shift assay

MV4-11 [2] = assay: Cell cycle arrest in human MV4-11 cells assessed as accumulation at subG1 phase after 48 hrs by PI/RNase staining based FACS analysis; format: functional
[3] = biological target: Receptor-type tyrosine-protein kinase FLT3 (Homo sapiens, UniProt P36888, D835H); assay: Binding affinity to human partial length FLT3 D835H mutant (592 to 969 residues) expressed in bacterial expression system after 1 hr
MV4-11 [4] = assay: Antitumor activity against human MV4-11 cells xenografted in nude BALB/c mouse assessed as induction of late stage apoptosis at 50 mg/kg, po qd measured after 1 to 3 days by TUNEL assay; format: functional, organism-based
NCI-H209 = assay: Antiproliferative activity against human H209 cells after 72 hrs by MTT assay; format: functional, cell-based; conditions: NCI-H209, 72 h
[5] = Cmax in overnight fasted Sprague-Dawley rat plasma at 10 mg/kg administered via oral gavage up to 24 hrs by LC-MS/MS analysis; format: ADME, organism-based; design: dose 10 mg/kg, route oral
MV4-11 [6] = assay: Cell cycle arrest in human MV4-11 cells assessed as accumulation at S phase at 10 nM after 48 hrs by PI/RNase staining based FACS analysis (reference value: 16.50%); format: functional
[7] = biological target: Receptor-type tyrosine-protein kinase FLT3 (Homo sapiens, UniProt P36888, ITD); assay: Binding affinity to human partial length FLT3 ITD mutant expressed in bacterial expression system after 1 hr
MV4-11 [8] = assay: Induction of apoptosis in human MV4-11 cells assessed as early apoptotic cells at 10000 nM after 48 hrs by annexin V/propidium iodide staining based FACS analysis (reference value: 6.31%); format: functional
[9] = test system: Receptor-type tyrosine-protein kinase FLT3 (Homo sapiens), P36888 [D835V]; assay: Inhibition of human FLT3 D835V mutant expressed in mammalian system assessed as remaining enzyme activity at 1 uM relative to untreated control
MV4-11 [10] = assay: Induction of apoptosis in human MV4-11 cells assessed as viable cells at 10000 nM after 48 hrs by annexin V/propidium iodide staining based FACS analysis (reference value: 90.60%); format: functional; conditions: MV4-11, 48 h, read-out: Activity
MV4-11 [11] = assay: Cell cycle arrest in human MV4-11 cells assessed as accumulation at G2 phase at 100 nM after 48 hrs by PI/RNase staining based FACS analysis (reference value: 13.95%); format: functional
MV4-11 [12] = assay: Induction of apoptosis in human MV4-11 cells assessed as necrotic cells at 10000 nM after 48 hrs by annexin V/propidium iodide staining based FACS analysis (reference value: 0.05%); format: functional
NCI-H1299 = assay: Antiproliferative activity against human H1299 cells after 72 hrs by SRB assay; format: functional, cell-based; conditions: NCI-H1299, 72 h
MV4-11 [13] = assay: Induction of apoptosis in human MV4-11 cells assessed as late apoptotic cells at 10 nM after 48 hrs by annexin V/propidium iodide staining based FACS analysis (reference value: 3.01%); format: functional
[14] = biological target: T1, Receptor-type tyrosine-protein kinase FLT3; assay: Binding affinity to auto-inhibited human partial length wild type FLT3 (564 to 969 residues) expressed in mammalian expression system after 1 hr
[15] = Cmax in overnight fasted Sprague-Dawley rat plasma at 1 mg/kg, iv up to 24 hrs by LC-MS/MS analysis; format: ADME, organism-based; design: dose 1 mg/kg, route intravenous
[16] = AUC (0 to infinity) in overnight fasted Sprague-Dawley rat plasma at 1 mg/kg, iv up to 24 hrs by LC-MS/MS analysis; format: ADME, organism-based; design: dose 1 mg/kg, route intravenous, time infinity
MV4-11 [17] = assay: Cell cycle arrest in human MV4-11 cells assessed as accumulation at G2 phase at 10 nM after 48 hrs by PI/RNase staining based FACS analysis (reference value: 13.95%); format: functional
MV4-11 [18] = assay: Induction of apoptosis in human MV4-11 cells assessed as viable cells at 10 nM after 48 hrs by annexin V/propidium iodide staining based FACS analysis (reference value: 90.60%); format: functional; conditions: MV4-11, 48 h, read-out: Activity
[19] = test system: Receptor-type tyrosine-protein kinase FLT3 (Homo sapiens), P36888 [N841I]; assay: Inhibition of human FLT3 N841I mutant expressed in bacterial system assessed as remaining enzyme activity at 1 uM relative to untreated control
MV4-11 [20] = assay: Cell cycle arrest in human MV4-11 cells assessed as accumulation at S phase at 1000 nM after 48 hrs by PI/RNase staining based FACS analysis (reference value: 16.50%); format: functional
[21] = test system: Receptor-type tyrosine-protein kinase FLT3 (Homo sapiens), P36888 [UNDEFINED MUTATION]; assay: Inhibition of human FLT3 ITD/F691L mutant expressed in mammalian system assessed as remaining enzyme activity at 1 uM relative to untreated control
MV4-11 [22] = assay: Induction of apoptosis in human MV4-11 cells assessed as early apoptotic cells at 100 nM after 48 hrs by annexin V/propidium iodide staining based FACS analysis (reference value: 6.31%); format: functional

Cc1cc(Nc2ncc3ncc(=O)n(-c4ccc(N)cc4)c3n2)ccc1N1CCN(C)CC1
IC50 [1]: 1.56 nM
Activity (MV4-11 [2]): Dose-dependent effect
Kd [3]: 1.8 nM
Activity (MV4-11 [4]): Active
IC50 (NCI-H209): > 10000 nM
Cmax [5]: 41 ng/mL
Activity (MV4-11 [6]): 18.4%
Kd [7]: 6.9 nM
Activity (MV4-11 [8]): 68.6%
Activity [9]: < 1%
viability at 10 µM (MV4-11 [10]): 0.02%
Activity (MV4-11 [11]): 0%
Activity (MV4-11 [12]): 0.02%
IC50 (NCI-H1299): 4880 nM
Activity (MV4-11 [13]): 3.34%
Kd [14]: 79 nM
Cmax [15]: 55.2 ng/mL
AUC(0-inf) [16]: 119 ng·h/mL
Activity (MV4-11 [17]): 11.4%
viability at 0.01 µM (MV4-11 [18]): 86.9%
Activity [19]: < 1%
Activity (MV4-11 [20]): 3.07%
Activity [21]: < 1%
Activity (MV4-11 [22]): 23%
